Assay results: the NIST ThermoML archive (doi:10.1016/j.jct.2005.11.003)

How the values were obtained:
[1] = xn = mol fraction of the nth substance listed; details: 298.15 K, 101 kPa, Liquid
[2] = excess molar enthalpy (molar enthalpy of mixing); xn = mol fraction of the nth substance listed; details: 298.15 K, 101 kPa, Liquid
[3] = 298.15 K; 101.33 kPa; Liquid
[4] = refractive index (Na D-line) (dimensionless); details: 298.15 K; 101.33 kPa; Liquid

ClCCCCCl [1,4-dichlorobutane] + CCCCOC(C)=O
[1]
Details	mass density [kg/m3]
x2 = 0.0529	1117.81
x2 = 0.1035	1102.8
x2 = 0.1569	1087.25
x2 = 0.2092	1072.35
x2 = 0.2638	1057.04
x2 = 0.3207	1041.46
x2 = 0.3754	1026.74
x2 = 0.4326	1011.67
x2 = 0.4906	996.66
x2 = 0.5505	981.49
x2 = 0.6125	966.12
x2 = 0.6735	951.29
x2 = 0.7365	936.28
x2 = 0.8011	921.17
x2 = 0.8692	905.6
x2 = 0.9352	890.8

ClCCCCCl [1,4-dichlorobutane] + CCCCOC=O
Details	excess molar enthalpy [kJ/mol]	mass density [kg/m3]
[1], x2 = 0.0582	–	1119.16
[1], x2 = 0.1167	–	1104.56
[1], x2 = 0.1724	–	1090.7
[1], x2 = 0.2316	–	1075.99
[1], x2 = 0.286	–	1062.54
[1], x2 = 0.345	–	1047.97
[1], x2 = 0.4055	–	1033.06
[1], x2 = 0.522	–	1004.48
[1], x2 = 0.5808	–	990.11
[1], x2 = 0.6408	–	975.5
[1], x2 = 0.6992	–	961.32
[1], x2 = 0.76	–	946.59
[1], x2 = 0.8183	–	932.5
[1], x2 = 0.8774	–	918.24
[1], x2 = 0.9363	–	904.07
[2], x2 = 0.049	0.0288	–
[2], x2 = 0.1112	0.0469	–
[2], x2 = 0.1816	0.0572	–
[2], x2 = 0.2472	0.0633	–
[2], x2 = 0.3099	0.0576	–
[2], x2 = 0.3701	0.0463	–
[2], x2 = 0.4257	0.0328	–
[2], x2 = 0.4725	0.0153	–
[2], x2 = 0.5121	0.0003	–
[2], x2 = 0.5471	-0.0099	–
[2], x2 = 0.5819	-0.0217	–
[2], x2 = 0.6245	-0.0346	–
[2], x2 = 0.6718	-0.0435	–
[2], x2 = 0.7351	-0.0513	–
[2], x2 = 0.8039	-0.045	–
[2], x2 = 0.8728	-0.0337	–
[2], x2 = 0.9412	-0.0176	–

CCCCOC(=O)CCC [butyl butanoate] + ClCCCCl
[1]
Details	mass density [kg/m3]
x1 = 0.0357	1159.7
x1 = 0.0715	1141.38
x1 = 0.1103	1122.7
x1 = 0.1503	1104.39
x1 = 0.1936	1085.72
x1 = 0.2376	1067.78
x1 = 0.2869	1048.84
x1 = 0.3371	1030.74
x1 = 0.3921	1012.12
x1 = 0.4496	993.89
x1 = 0.5117	975.49
x1 = 0.5785	957.03
x1 = 0.6494	938.78
x1 = 0.7262	920.43
x1 = 0.8114	901.61
x1 = 0.8978	884.02

CCCCOC=O [butyl methanoate] + ClCCCl
Details	excess molar enthalpy [kJ/mol]	mass density [kg/m3]
[1], x1 = 0.0423	–	1223.68
[1], x1 = 0.0859	–	1202
[1], x1 = 0.1303	–	1180.75
[1], x1 = 0.1772	–	1159.35
[1], x1 = 0.2251	–	1138.25
[1], x1 = 0.2748	–	1117.45
[1], x1 = 0.3271	–	1096.31
[1], x1 = 0.382	–	1075.28
[1], x1 = 0.4376	–	1054.83
[1], x1 = 0.497	–	1034.05
[1], x1 = 0.5604	–	1012.84
[1], x1 = 0.6255	–	992.02
[1], x1 = 0.6925	–	971.62
[1], x1 = 0.7638	–	950.97
[1], x1 = 0.8379	–	930.45
[1], x1 = 0.9173	–	909.53
[2], x1 = 0.0384	0.0072	–
[2], x1 = 0.0884	0.0032	–
[2], x1 = 0.1406	-0.0158	–
[2], x1 = 0.2002	-0.0433	–
[2], x1 = 0.254	-0.0755	–
[2], x1 = 0.3052	-0.109	–
[2], x1 = 0.35	-0.138	–
[2], x1 = 0.3874	-0.162	–
[2], x1 = 0.4396	-0.183	–
[2], x1 = 0.4751	-0.196	–
[2], x1 = 0.5277	-0.205	–
[2], x1 = 0.5938	-0.19	–
[2], x1 = 0.6645	-0.181	–
[2], x1 = 0.741	-0.16	–
[2], x1 = 0.8303	-0.121	–
[2], x1 = 0.9138	-0.0737	–

ClCCCCl [1,3-dichloropropane] + CCCCOC(=O)CC
[1]
Details	mass density [kg/m3]
x2 = 0.0407	1159.66
x2 = 0.1229	1123.34
x2 = 0.2119	1087.43
x2 = 0.2612	1068.85
x2 = 0.3653	1032.69
x2 = 0.4229	1014.17
x2 = 0.4801	996.73
x2 = 0.5422	978.78
x2 = 0.6802	942.1
x2 = 0.7534	924.3
x2 = 0.9139	888.6

CCCCOC(=O)CCC [butyl butanoate] + ClCCCCCCCl
[1]
Details	mass density [kg/m3]
x1 = 0.0545	1051.6
x1 = 0.1071	1040.01
x1 = 0.16	1028.52
x1 = 0.2136	1017
x1 = 0.2692	1005.25
x1 = 0.3239	993.9
x1 = 0.3815	982.05
x1 = 0.439	970.43
x1 = 0.5565	947.09
x1 = 0.6826	922.79
x1 = 0.7398	911.99
x1 = 0.803	900.24
x1 = 0.8726	887.54
x1 = 0.9323	876.78

CCCCOC(=O)CCC [butyl butanoate] + ClCCCl
[1]
Details	mass density [kg/m3]
x1 = 0.0297	1221.83
x1 = 0.0605	1198.84
x1 = 0.0933	1176.2
x1 = 0.1275	1153.91
x1 = 0.1649	1131.5
x1 = 0.2054	1109
x1 = 0.2498	1086.2
x1 = 0.2967	1064.01
x1 = 0.3484	1041.64
x1 = 0.4037	1019.73
x1 = 0.4652	997.47
x1 = 0.5324	975.45
x1 = 0.605	953.73
x1 = 0.6862	931.87
x1 = 0.7785	909.66
x1 = 0.8821	887.38

ClCCCCl [1,3-dichloropropane] + CCCCOC(C)=O
[1]
Details	mass density [kg/m3]
x2 = 0.046	1159.83
x2 = 0.0904	1142.04
x2 = 0.1361	1124.29
x2 = 0.1839	1106.48
x2 = 0.2336	1088.53
x2 = 0.2841	1070.96
x2 = 0.3935	1035.06
x2 = 0.5106	999.49
x2 = 0.6371	964.06
x2 = 0.7043	946.37
x2 = 0.7737	928.82
x2 = 0.8467	911.1
x2 = 0.923	893.45

CCCCOC(C)=O [butyl ethanoate]
Details	mass density [kg/m3]	refractive index
[3]	876.4	–
[4]	–	1.3918

CCCCOC(=O)CCC [butyl butanoate] + ClCCCCCCl
[1]
Details	mass density [kg/m3]
x1 = 0.0481	1081.06
x1 = 0.0957	1067.51
x1 = 0.1451	1053.83
x1 = 0.1939	1040.72
x1 = 0.2465	1026.89
x1 = 0.3533	1000.09
x1 = 0.4105	986.32
x1 = 0.5282	959.19
x1 = 0.6536	932.02
x1 = 0.7875	904.75
x1 = 0.8568	891.25

ClCCCCCCl [1,5-dichloropentane] + CCCCOC(=O)CC
[1]
Details	mass density [kg/m3]
x2 = 0.0528	1081.66
x2 = 0.1047	1068.55
x2 = 0.1575	1055.43
x2 = 0.2116	1042.24
x2 = 0.3217	1016.04
x2 = 0.3799	1002.5
x2 = 0.4359	989.71
x2 = 0.5529	963.57
x2 = 0.6167	949.63
x2 = 0.6773	936.67
x2 = 0.7411	923.24
x2 = 0.8045	910.15
x2 = 0.8667	897.51
x2 = 0.9333	884.23
